From patent US6737383B1, “Herbicidal oxadiazolidines” (priority 1999, dated 2004)

Assays:
bedstraw = assay: Test B pre/postemergence bedstraw; type: in vivo, Galium aparine
Procedure, shortened: (§1)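 Response is a visual 0-to-10 score relative to untreated plants, where 0 means no effect and 10 means complete control, taken twelve to sixteen days after application. Treatments went onto soil at planting and onto foliage of 1- to 4-leaf plants, using a surfactant-containing non-phytotoxic solvent.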

blackgrass = assay: Test B pre/postemergence blackgrass; type: in vivo, Alopecurus myosuroides
Procedure, shortened: as §1

surinam grass = assay: Test B pre/postemergence surinam grass; type: in vivo, Brachiaria decumbens
Procedure, shortened: as §1

cocklebur = assay: Test B pre/postemergence cocklebur; type: in vivo, Xanthium strumarium
Procedure, shortened: as §1

corn = assay: Test B pre/postemergence corn; type: in vivo, Zea mays
Procedure, shortened: as §1

giant foxtail = assay: Test B pre/postemergence giant foxtail; type: in vivo, Setaria faberii
Procedure, shortened: as §1

morningglory = assay: Test B pre/postemergence morningglory; type: in vivo, Ipomoea hederacea
Procedure, shortened: as §1

pigweed = assay: Test B pre/postemergence pigweed; type: in vivo, Amaranthus retroflexus
Procedure, shortened: as §1

rape = assay: Test B pre/postemergence rape; type: in vivo, Brassica napus
Procedure, shortened: as §1

soybean = assay: Test B pre/postemergence soybean; type: in vivo, Glycine max
Procedure, shortened: as §1

sugar beet = assay: Test B pre/postemergence sugar beet; type: in vivo, Beta vulgaris
Procedure, shortened: as §1

velvetleaf = assay: Test B pre/postemergence velvetleaf; type: in vivo, Abutilon theophrasti
Procedure, shortened: as §1

wheat = assay: Test B pre/postemergence wheat; type: in vivo, Triticum aestivum
Procedure, shortened: as §1

wild oat = assay: Test B pre/postemergence wild oat; type: in vivo, Avena fatua
Procedure, shortened: as §1

rice = assay: Test B flood test rice; type: in vivo, Oryza sativa
Procedure, shortened: (§2)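 Read-out is a visual response score from 0 (no effect) to 10 (complete control), assigned by comparison with untreated controls. Treatment was applied at the 2-leaf stage, and plants stayed in the greenhouse for twelve to sixteen days before scoring.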

smallflower flatsedge = assay: Test B flood test smallflower flatsedge; type: in vivo, Cyperus difformis
Procedure, shortened: as §2

[1] = Preemergence, Rate 62 g/ha, scale of 0 to 10 where 0 is no effect and 10 is complete control
[2] = Preemergence, Rate 250 g/ha, scale of 0 to 10 where 0 is no effect and 10 is complete control
[3] = Preemergence, Rate 500 g/ha, scale of 0 to 10 where 0 is no effect and 10 is complete control
[4] = Rate 62 g/ha, Postemergence, scale of 0 to 10 where 0 is no effect and 10 is complete control
[5] = Rate 125 g/ha, Postemergence, scale 0 to 10
[6] = Rate 125 g/ha, Preemergence, scale of 0 to 10 where 0 is no effect and 10 is complete control
[7] = Rate 500 g/ha, Postemergence, scale 0 to 10, 0 no effect, 10 complete control
[8] = Rate 62 g/ha, headed Pre-emergence (flood test species), scale 0 to 10 (0 no effect, 10 complete control)
[9] = Rate 125 g/ha, Pre-emergence, flood test species, scale 0 to 10 where 0 is no effect and 10 is complete control
[10] = Rate 250 g/ha, Pre-emergence, flood-test species, scale 0 to 10, 0 is no effect, 10 is complete control
[11] = Rate 500 g/ha, Pre-emergence, flood test species, scale 0 to 10 (0 no effect, 10 complete control)

SMILES: CCC(C)N(C(=O)n1oc(=O)n(-c2ccccc2C)c1=O)c1ccc(F)cc1 (stereo not shown) [Compound 239]
- Bedstraw plant response rating (bedstraw; [1]): 0
- Bedstraw plant response rating (bedstraw; [2]): 0
- Plant response rating, Bedstraw (bedstraw; [3]): 0
- Bedstraw plant response rating (bedstraw; [4]): 0
- Bedstraw plant response rating (bedstraw; [5]): 3
- Bedstraw plant response rating (bedstraw; [6]): 0
- Plant response rating (0 to 10; 0 is no effect, 10 is complete control), Bedstraw (bedstraw; Rate 250 g/ha, Postemergence): 3
- Bedstraw plant response rating (bedstraw; [7]): 3
- Blackgrass plant response rating (blackgrass; [1]): 0
- Blackgrass plant response rating (blackgrass; [2]): 4
- Plant response rating, Blackgrass (blackgrass; [3]): 4
- Blackgrass plant response rating (blackgrass; [4]): 0
- Blackgrass plant response rating (blackgrass; [5]): 0
- Blackgrass plant response rating (blackgrass; [6]): 3
- Plant response rating (0 to 10; 0 is no effect, 10 is complete control), Blackgrass (blackgrass; Rate 250 g/ha, Postemergence): 2
- Blackgrass plant response rating (blackgrass; [7]): 3
- B. signalgrass plant response rating (surinam grass; [1]): 0
- B. signalgrass plant response rating (surinam grass; Preemergence, Rate 250 g/ha, scale 0 to 10, 0 is no effect, 10 is complete control): 4
- Plant response rating, B. signalgrass (surinam grass; [3]): 5
- B. signalgrass plant response rating (surinam grass; [4]): 0
- B. signalgrass plant response rating (surinam grass; Rate 125 g/ha, Postemergence, scale 0 (no effect) to 10 (complete control)): 0
- B. signalgrass plant response rating (surinam grass; [6]): 0
- Plant response rating (0 to 10; 0 is no effect, 10 is complete control), B. signalgrass (surinam grass; Rate 250 g/ha, Postemergence): 0
- B. signalgrass plant response rating (surinam grass; [7]): 0
- Cocklebur plant response rating (cocklebur; [1]): 0
- Cocklebur plant response rating (cocklebur; [2]): 0
- Plant response rating, Cocklebur (cocklebur; [3]): 0
- Cocklebur plant response rating (cocklebur; [4]): 0
- Cocklebur plant response rating (cocklebur; [5]): 1
- Cocklebur plant response rating (cocklebur; [6]): 0
- Plant response rating (0 to 10; 0 is no effect, 10 is complete control), Cocklebur (cocklebur; Rate 250 g/ha, Postemergence): 1
- Cocklebur plant response rating (cocklebur; [7]): 1
- Corn plant response rating (corn; [1]): 0
- Corn plant response rating (corn; [2]): 0
- Plant response rating, Corn (corn; [3]): 0
- Corn plant response rating (corn; [4]): 0
- Corn plant response rating (corn; [5]): 0
- Corn plant response rating (corn; [6]): 0
- Plant response rating (0 to 10; 0 is no effect, 10 is complete control), Corn (corn; Rate 250 g/ha, Postemergence): 0
- Corn plant response rating (corn; [7]): 0
- Giant foxtail plant response rating (giant foxtail; [1]): 4
- Giant foxtail plant response rating (giant foxtail; [2]): 10
- Plant response rating, Giant foxtail (giant foxtail; [3]): 10
- Giant foxtail plant response rating (giant foxtail; [4]): 0
- Giant foxtail plant response rating (giant foxtail; [6]): 10
- Plant response rating (0 to 10; 0 is no effect, 10 is complete control), Giant foxtail (giant foxtail; Rate 250 g/ha, Postemergence): 1
- Giant foxtail plant response rating (giant foxtail; [7]): 6
- Morningglory plant response rating (morningglory; [1]): 0
- Morningglory plant response rating (morningglory; [2]): 0
- Plant response rating, Morningglory (morningglory; [3]): 0
- Morningglory plant response rating (morningglory; [4]): 1
- Morningglory plant response rating (morningglory; [6]): 0
- Plant response rating (0 to 10; 0 is no effect, 10 is complete control), Morningglory (morningglory; Rate 250 g/ha, Postemergence): 3
- Morningglory plant response rating (morningglory; [7]): 9
- Redroot pigweed plant response rating (pigweed; [1]): 0
- Redroot pigweed plant response rating (pigweed; [2]): 0
- Plant response rating, Redroot pigweed (pigweed; [3]): 0
- Redroot pigweed plant response rating (pigweed; [4]): 0
- Redroot pigweed plant response rating (pigweed; [6]): 0
- Plant response rating (0 to 10; 0 is no effect, 10 is complete control), Redroot pigweed (pigweed; Rate 250 g/ha, Postemergence): 3
- Redroot pigweed plant response rating (pigweed; [7]): 7
- Rape plant response rating (rape; [1]): 0
- Rape plant response rating (rape; [2]): 0
- Plant response rating, Rape (rape; [3]): 0
- Rape plant response rating (rape; [4]): 0
- Rape plant response rating (rape; [6]): 0
- Plant response rating (0 to 10; 0 is no effect, 10 is complete control), Rape (rape; Rate 250 g/ha, Postemergence): 0
- Rape plant response rating (rape; [7]): 0
- Soybean plant response rating (soybean; [1]): 0
- Soybean plant response rating (soybean; [2]): 0
- Plant response rating, Soybean (soybean; [3]): 0
- Soybean plant response rating (soybean; [4]): 1
- Soybean plant response rating (soybean; [6]): 0
- Soybean plant response rating (soybean; [7]): 3
- Sugarbeets plant response rating (sugar beet; [1]): 0
- Sugarbeets plant response rating (sugar beet; [2]): 0
- Plant response rating, Sugarbeets (sugar beet; [3]): 0
- Sugarbeets plant response rating (sugar beet; [4]): 0
- Sugarbeets plant response rating (sugar beet; [6]): 0
- Sugarbeets plant response rating (sugar beet; [7]): 0
- Velvetleaf plant response rating (velvetleaf; [1]): 0
- Velvetleaf plant response rating (velvetleaf; [2]): 2
- Plant response rating, Velvetleaf (velvetleaf; [3]): 5
- Velvetleaf plant response rating (velvetleaf; [4]): 0
- Velvetleaf plant response rating (velvetleaf; [6]): 0
- Velvetleaf plant response rating (velvetleaf; [7]): 3
- Wheat plant response rating (wheat; [1]): 0
- Wheat plant response rating (wheat; [2]): 0
- Plant response rating, Wheat (wheat; [3]): 2
- Wheat plant response rating (wheat; [4]): 0
- Wheat plant response rating (wheat; [6]): 0
- Wheat plant response rating (wheat; [7]): 0
- Wild oats plant response rating (wild oat; [1]): 0
- Wild oats plant response rating (wild oat; [2]): 3
- Plant response rating, Wild oats (wild oat; [3]): 3
- Wild oats plant response rating (wild oat; [4]): 0
- Wild oats plant response rating (wild oat; [6]): 0
- Wild oats plant response rating (wild oat; [7]): 0
- Rice plant response rating (rice; [8]): 0
- Rice plant response rating (rice; [9]): 0
- Rice plant response rating (rice; [10]): 0
- Rice plant response rating (rice; [11]): 0
- S. Flatsedge plant response rating (smallflower flatsedge; [8]): 0
- S. Flatsedge plant response rating (smallflower flatsedge; [9]): 0
- S. Flatsedge plant response rating (smallflower flatsedge; [10]): 0
- S. Flatsedge plant response rating (smallflower flatsedge; [11]): 0
